Measurements reported in patent publication US20200370087A1, “METHOD FOR DETERMINING MICROBIAL SUSCEPTIBILITY TO ANTIBIOTIC AGENTS” (Ascilion AB, priority 2017, published 2020).
≈ marks a conversion by molar mass, not a printed value.

Columns and labels:
[1] = tested on: Escherichia coli (ATCC 25922); experiment: Glucose consumption susceptibility test, blood culture diluted in MHB with glucose (Example 1); format: cell-based; parameters: glucose concentration, t = 0 / glucose concentration, t = 60 / glucose concentration, t = 120 / glucose concentration, t = 180 / dC/dT (rate of change in glucose concentration) / glucose concentration, t = 240: unit not given here; details: E. coli; for glucose concentration, t = 60: 60 minutes; for glucose concentration, t = 120: 120 minutes; for glucose concentration, t = 180: 180 minutes
Description: (§1) Strains of Escherichia coli (ATCC 25922), Enterococcus faecalis (ATCC 29212) and Staphylococcus aureus (ATCC 29213) were inoculated in blood culture bottles (SVA, Uppsala, Sweden) and cultivated according to the manufacturer's instructions until positive.
(§2) Medium from each blood culture bottle was diluted 1:100 with cation adjusted Mueller-Hinton broth (SVA, Uppsala, Sweden) supplemented with glucose to a concentration of 1.0 mg/mL.
(§3) Glucose concentrations were measured at 0, 60, 120, 180, and 240 minutes using a WaveSense Jazz glucometer (AgaMatrix, Inc., Salem, N.H., USA) with accompanying test strips.
(§4) Susceptibility scores corresponding to MIC values were calculated as described above. A 80% threshold was applied, i.e. the lowest concentration of antibiotic that entailed a rate of change in glucose concentration that was equal to or less than 80% of the reference was selected as the Minimal Inhibitory Concentration. The rate of change was calculated between the measurements at 60 and 180 minutes.

[2] = tested on: Staphylococcus aureus ATCC 29213; details: S.aureus, cited from earlier work
[3] = tested on: Staphylococcus aureus (ATCC 29213); experiment: Glucose consumption susceptibility test, blood culture diluted in MHB with glucose (Example 1); format: cell-based; details: S. aureus; for glucose concentration, t = 60: 60 minutes; for glucose concentration, t = 120: 120 minutes; for glucose concentration, t = 180: 180 minutes; for glucose concentration, t = 240: 240 minutes
Description: as §1, §2, §3, §4

CN[C@H](CC(C)C)C(=O)N[C@H]1C(=O)N[C@@H](CC(N)=O)C(=O)N[C@H]2C(=O)N[C@H]3C(=O)N[C@H](C(=O)N[C@H](C(=O)O)c4cc(O)cc(O)c4-c4cc3ccc4O)[C@H](O)c3ccc(c(Cl)c3)Oc3cc2cc(c3O[C@@H]2O[C@H](CO)[C@@H](O)[C@H](O)[C@H]2O[C@H]2C[C@](C)(N)[C@H](O)[C@H](C)O2)Oc2ccc(cc2Cl)[C@H]1O [Vancomycin, vancomycin]
F = the rate of change in glucose concentration in relation to the reference ([1]; antibiotic 0.0625 μg/mL): 67%
dC/dT (rate of change in glucose concentration) ([1]; antibiotic 0.0625 μg/mL): 42
glucose concentration, t = 60 ([1]; antibiotic 0.0625 μg/mL): 148
glucose concentration, t = 120 ([1]; antibiotic 0.0625 μg/mL): 144
glucose concentration, t = 180 ([1]; antibiotic 0.0625 μg/mL): 65
F = the rate of change in glucose concentration in relation to the reference ([1]; antibiotic 0.125 μg/mL): 71%
dC/dT (rate of change in glucose concentration) ([1]; antibiotic 0.125 μg/mL): 44
glucose concentration, t = 60 ([1]; antibiotic 0.125 μg/mL): 153
glucose concentration, t = 120 ([1]; antibiotic 0.125 μg/mL): 154
glucose concentration, t = 180 ([1]; antibiotic 0.125 μg/mL): 65
F = the rate of change in glucose concentration in relation to the reference ([1]; antibiotic 0.25 μg/mL): 68%
dC/dT (rate of change in glucose concentration) ([1]; antibiotic 0.25 μg/mL): 42
glucose concentration, t = 60 ([1]; antibiotic 0.25 μg/mL): 150
glucose concentration, t = 120 ([1]; antibiotic 0.25 μg/mL): 145
glucose concentration, t = 180 ([1]; antibiotic 0.25 μg/mL): 66
F = the rate of change in glucose concentration in relation to the reference ([1]; antibiotic 0.5 μg/mL): 65%
dC/dT (rate of change in glucose concentration) ([1]; antibiotic 0.5 μg/mL): 41
glucose concentration, t = 60 ([1]; antibiotic 0.5 μg/mL): 149
glucose concentration, t = 120 ([1]; antibiotic 0.5 μg/mL): 145
glucose concentration, t = 180 ([1]; antibiotic 0.5 μg/mL): 68
F = the rate of change in glucose concentration in relation to the reference ([1]; antibiotic 1 μg/mL): 73%
dC/dT (rate of change in glucose concentration) ([1]; antibiotic 1 μg/mL): 45
glucose concentration, t = 60 ([1]; antibiotic 1 μg/mL): 155
glucose concentration, t = 120 ([1]; antibiotic 1 μg/mL): 149
glucose concentration, t = 180 ([1]; antibiotic 1 μg/mL): 65
F = the rate of change in glucose concentration in relation to the reference ([1]; antibiotic 2 μg/mL): 65%
dC/dT (rate of change in glucose concentration) ([1]; antibiotic 2 μg/mL): 40
glucose concentration, t = 60 ([1]; antibiotic 2 μg/mL): 147
glucose concentration, t = 120 ([1]; antibiotic 2 μg/mL): 151
glucose concentration, t = 180 ([1]; antibiotic 2 μg/mL): 67
F = the rate of change in glucose concentration in relation to the reference ([1]; antibiotic 4 μg/mL): 69%
dC/dT (rate of change in glucose concentration) ([1]; antibiotic 4 μg/mL): 43
glucose concentration, t = 60 ([1]; antibiotic 4 μg/mL): 147
glucose concentration, t = 120 ([1]; antibiotic 4 μg/mL): 145
glucose concentration, t = 180 ([1]; antibiotic 4 μg/mL): 61
F = the rate of change in glucose concentration in relation to the reference ([1]; antibiotic 8 μg/mL): 87%
dC/dT (rate of change in glucose concentration) ([1]; antibiotic 8 μg/mL): 54
glucose concentration, t = 60 ([1]; antibiotic 8 μg/mL): 159
glucose concentration, t = 120 ([1]; antibiotic 8 μg/mL): 147
glucose concentration, t = 180 ([1]; antibiotic 8 μg/mL): 51
MIC, EUCAST, range in parentheses ([2]; range obtained by EUCAST from ISO 20776-1: 2006): (0.5-2) ug/mL
MIC, EUCAST ([2]; reference value, Mueller-Hinton agar, incubation 18±2 h): 1 µg/mL (≈ 0.69 µM)
F = the rate of change in glucose concentration in relation to the reference ([3]; antibiotic 0.25 μg/mL): 75%
dC/dT (rate of change in glucose concentration) ([3]; antibiotic 0.25 μg/mL): 25
glucose concentration, t = 60 ([3]; antibiotic 0.25 μg/mL): 142
glucose concentration, t = 120 ([3]; antibiotic 0.25 μg/mL): 133
glucose concentration, t = 180 ([3]; antibiotic 0.25 μg/mL): 92
glucose concentration, t = 240 ([3]; antibiotic 0.25 μg/mL): 42
F = the rate of change in glucose concentration in relation to the reference ([3]; antibiotic 0.5 μg/mL): 84%
dC/dT (rate of change in glucose concentration) ([3]; antibiotic 0.5 μg/mL): 28
glucose concentration, t = 60 ([3]; antibiotic 0.5 μg/mL): 156
glucose concentration, t = 120 ([3]; antibiotic 0.5 μg/mL): 142
glucose concentration, t = 180 ([3]; antibiotic 0.5 μg/mL): 100
glucose concentration, t = 240 ([3]; antibiotic 0.5 μg/mL): 51
F = the rate of change in glucose concentration in relation to the reference ([3]; antibiotic 1 μg/mL): 96%
dC/dT (rate of change in glucose concentration) ([3]; antibiotic 1 μg/mL): 32
glucose concentration, t = 60 ([3]; antibiotic 1 μg/mL): 161
glucose concentration, t = 120 ([3]; antibiotic 1 μg/mL): 140
glucose concentration, t = 180 ([3]; antibiotic 1 μg/mL): 97
glucose concentration, t = 240 ([3]; antibiotic 1 μg/mL): 51
F = the rate of change in glucose concentration in relation to the reference ([3]; antibiotic 2 μg/mL): 88%
dC/dT (rate of change in glucose concentration) ([3]; antibiotic 2 μg/mL): 30
glucose concentration, t = 60 ([3]; antibiotic 2 μg/mL): 160
glucose concentration, t = 120 ([3]; antibiotic 2 μg/mL): 143
glucose concentration, t = 180 ([3]; antibiotic 2 μg/mL): 101
glucose concentration, t = 240 ([3]; antibiotic 2 μg/mL): 53
F = the rate of change in glucose concentration in relation to the reference ([3]; antibiotic 4 μg/mL): 39%
dC/dT (rate of change in glucose concentration) ([3]; antibiotic 4 μg/mL): 13
glucose concentration, t = 60 ([3]; antibiotic 4 μg/mL): 157
glucose concentration, t = 120 ([3]; antibiotic 4 μg/mL): 147
glucose concentration, t = 180 ([3]; antibiotic 4 μg/mL): 131
glucose concentration, t = 240 ([3]; antibiotic 4 μg/mL): 107
F = the rate of change in glucose concentration in relation to the reference ([3]; antibiotic 8 μg/mL): 6%
dC/dT (rate of change in glucose concentration) ([3]; antibiotic 8 μg/mL): 2
glucose concentration, t = 60 ([3]; antibiotic 8 μg/mL): 150
glucose concentration, t = 120 ([3]; antibiotic 8 μg/mL): 150
glucose concentration, t = 180 ([3]; antibiotic 8 μg/mL): 146
glucose concentration, t = 240 ([3]; antibiotic 8 μg/mL): 149
F = the rate of change in glucose concentration in relation to the reference ([3]; antibiotic 16 μg/mL): 7%
dC/dT (rate of change in glucose concentration) ([3]; antibiotic 16 μg/mL): 3
glucose concentration, t = 60 ([3]; antibiotic 16 μg/mL): 157
glucose concentration, t = 120 ([3]; antibiotic 16 μg/mL): 153
glucose concentration, t = 180 ([3]; antibiotic 16 μg/mL): 152
glucose concentration, t = 240 ([3]; antibiotic 16 μg/mL): 149
F = the rate of change in glucose concentration in relation to the reference ([3]; antibiotic 32 μg/mL): 13%
dC/dT (rate of change in glucose concentration) ([3]; antibiotic 32 μg/mL): 5
glucose concentration, t = 60 ([3]; antibiotic 32 μg/mL): 157
glucose concentration, t = 120 ([3]; antibiotic 32 μg/mL): 140
glucose concentration, t = 180 ([3]; antibiotic 32 μg/mL): 148
glucose concentration, t = 240 ([3]; antibiotic 32 μg/mL): 146
